{"source": "PubChem BioAssay AID1259409", "about": "(Chemical Carcinogenesis Research Information System (CCRIS), 2018)", "origin": "cited, not measured here", "system": "rodent chemically induced tumor inhibition, incidence and multiplicity", "assay": "CCRIS tumor inhibitor studies", "settings": "Carcinogen: N-METHYL-N'-NITRO-N-NITROSOGUANIDINE, 70-25-7, Dose [Inhibitor]: 0, Route [Inhibitor]: SUBCUTANEOUS, Species: RAT, Strain/Sex: WISTAR/MALE", "data": [{"smiles": "CCN1CCCC1CNC(=O)c1cc(S(N)(=O)=O)ccc1OC", "note": "(configuration not stated)", "values": [{"measurement": "tumour outcome (control, treated, inhibition, significance)", "setting": "30 MG/KG 1/2 D BEGINNING 1 WK POST CARCINOGEN TREATMENT AND CONTINUING FOR DURATION OF STUDY (STUDY DURATION: 52 WK), Target Tissue: Type of Lesion: STOMACH: ADENOCARCINOMA, Dose [Carcinogen]: 50 UG/ML IN DRINKING WATER FOR 25 WK, Promoter: NONE USED", "value": "13/18 (72%), 11/18 (61%), 15%, not significant"}, {"measurement": "tumour outcome (control, treated, inhibition, significance)", "setting": "30 MG/KG IN 2 ML/KG 0.9% NACL 1/2 D FOR STUDY DURATION BEGINNING POST CARCINOGEN TREATMENT (STUDY DURATION: 52 WK), Target Tissue: Type of Lesion: GLANDULAR STOMACH: ADENOCARCINOMA, Dose [Carcinogen]: 50 UG/ML DRINKING WATER FOR 25 WK", "value": "13/18 (72%), 11/18 (61%), 15%, not significant"}]}]}
